Experimental findings from patent US20250019385A1, “SPIROCYCLIC ANNULATED 2-AMINO-3-CYANO THIOPHENES AND DERIVATIVES FOR THE TREATMENT OF CANCER” (Boehringer Ingelheim International GmbH, priority 2023, published 2025) are described below.

The first assay has as its system SK-CO-1 cells. Put plainly: SK-CO-1 CTG proliferation assay (120 h) (CRC, G12V). Type of assay: cell-based. The settings on record: Homo sapiens. The method, then: (§1) SK—CO-1 cells (ATCC HTB-39) are dispensed into black 384-well plates, flat and clear bottom (Greiner, PNr. 781091) at a density of 500 cells per well in 60 μl EMEM (Sigma M5650)+10% FCS (fetal calf serum, HyClone, SH30084.03). Cells are incubated overnight at 37° C. in a humidified tissue culture incubator at 5% CO2. Compounds (10 mM stock in DMSO) are added at logarithmic dose series using the ECHO acoustic liquid handler system (Beckman Coulter), normalizing for added DMSO and including DMSO controls. All compound treatments are performed in technical duplicates. For the TO time point measurement, untreated cells are analyzed at the time of compound addition. Plates are incubated for 120 h, and cell viability is measured using CellTiter-Glo luminescent cell viability reagent (Promega product code G7570). Viability (stated as percent of control) is defined as relative luminescence units RLU of each well divided by the RLU of cells in DMSO controls. IC50 values are determined from viability measurements by non-linear regression using a four-parameter model.
(§2) IC50 values of representative compounds according to the invention measured with these assays in the indicated cell lines are presented in Table 46.
In turn, `CO[C@@H]1C[C@@H]([C@H](C)Oc2nc(-c3onc4c3CCC[C@@]43CCCc4sc(N)c(C#N)c43)nc3c2n(C)c(=O)n3[C@@H]2CCOC2)N(C)C1` [I-3] gave an IC50 of 4 nM.

Compound `C[C@H](Oc1nc(-c2noc3c2CCC[C@@]32CCCc3sc(N)c(C#N)c32)nc2c1n(C)c(=O)n2[C@@H]1CCOC1)[C@@H]1CCCN1C` [II-2] showed an IC50 of 3 nM. The IC50 values of the last two compounds are within 1.5-fold of each other.

`C[C@H](Oc1nc(-c2onc3c2CCC[C@@]32CCCc3sc(N)c(C#N)c32)nc2c1n(C)c(=O)n2[C@H]1CC2CCC1O2)[C@@H]1CCCN1C` (stereo partly drawn) [I-17] showed an IC50 of 83 nM. This IC50 is about 28-fold higher than that of the compound before.

Turning to `C[C@H](Oc1nc(-c2onc3c2CCC[C@@]32CCCc3sc(N)c(C#N)c32)nc2c1CN(C1COC1)C[C@]21CCOC1)[C@@H]1CCCN1C` [I-56], the IC50 is 7 nM.

Regarding `CO[C@H]1CCN(C)[C@@H]1[C@H](C)Oc1nc(-c2onc3c2CCC[C@@]32CCCc3sc(N)c(C#N)c32)nc2c1CN(C1COC1)C[C@]21CCOC1` [I-57], it took 7 nM to reach half-maximal inhibition (IC50).

The compound `C[C@H](Oc1nc(-c2onc3c2CCC[C@@]32CCCc3sc(N)c(C#N)c32)nc2c1n(C)c(=O)n2[C@@H]1CCCOC1)[C@@H]1CCCN1C` [I-12] yielded an IC50 of 5 nM.

The compound `C[C@H](Oc1nc(-c2onc3c2CCC[C@@]32CCCc3sc(N)c(C#N)c32)nc2c1COC[C@]21CCOC1)[C@@H]1CCCN1C` [I-54] registered an IC50 of 3 nM.

Consider `CO[C@H]1CCN(C)[C@@H]1[C@H](C)Oc1nc(-c2noc3c2CCC[C@@]32CCCc3sc(N)c(C#N)c32)nc2c1n(C)c(=O)n2[C@@H]1CCCOC1` [II-3], for which the IC50 was 5 nM.

For `C[C@H](Oc1nc(-c2onc3c2CCC[C@@]32CCCc3sc(N)c(C#N)c32)nc2c1n(C)c(=O)n2[C@@H]1CCOC1)[C@@H]1C[C@@H]2C[C@@H]2N1C` [I-28], inhibition was half-maximal at 67 nM (IC50).

`Cc1cc2c(O[C@@H](C)[C@@H]3CCCN3C)nc(-c3onc4c3CCC[C@@]43CCCc4sc(N)c(C#N)c43)nc2n1[C@@H]1CCOC1` [I-40] yielded an IC50 of 39 nM. This IC50 lies about 1.7-fold lower than the previous one.

Turning to `Cc1cn([C@@H]2CCOC2)c2nc(-c3onc4c3CCC[C@@]43CCCc4sc(N)c(C#N)c43)nc(O[C@@H](C)[C@@H]3CCCN3C)c12` [I-41], the midpoint of inhibition, the IC50, lay at 18 nM.

The compound `C[C@H](Oc1nc(-c2onc3c2CCC[C@@]32CCCc3sc(N)c(C#N)c32)nc2c1n(C)c(=O)n2[C@@H]1CCOC1)[C@@H]1[C@H](F)CCN1C` [I-4] returned a concentration for half-maximal inhibition (IC50) of 77 nM.

As to `C[C@H](Oc1nc(-c2onc3c2CCC[C@@]32CCCc3sc(N)c(C#N)c32)nc2c1cnn2[C@@H]1CCOC1)[C@@H]1CCCN1C` [I-43], 56 nM corresponded to half-maximal inhibition (IC50). This IC50 and that of the compound before are within 1.5-fold of each other.

The subject of another assay is NCI-H727 cells. Put plainly: NCI-H727 CTG proliferation assay (120 h) (lung cancer, G12V). Particulars: Homo sapiens. Type of assay: cell-based. The protocol:
as §1, with “NCI-H727” for “SK—CO-1”, “No. CRL-5815)” for “HTB-39)”, “RPMI ATCC-Formulation (PAN P04-18047)+10%” for “EMEM (Sigma M5650)+10%”
as §2
With `CO[C@@H]1C[C@@H]([C@H](C)Oc2nc(-c3onc4c3CCC[C@@]43CCCc4sc(N)c(C#N)c43)nc3c2n(C)c(=O)n3[C@@H]2CCOC2)N(C)C1` [I-3], it took 5 nM to reach half-maximal inhibition (IC50).

As for `C[C@H](Oc1nc(-c2noc3c2CCC[C@@]32CCCc3sc(N)c(C#N)c32)nc2c1n(C)c(=O)n2[C@@H]1CCOC1)[C@@H]1CCCN1C` [II-2], 3 nM corresponded to half-maximal inhibition (IC50).

`C[C@H](Oc1nc(-c2onc3c2CCC[C@@]32CCCc3sc(N)c(C#N)c32)nc2c1n(C)c(=O)n2[C@H]1CC2CCC1O2)[C@@H]1CCCN1C` (stereo partly drawn) [I-17]: the IC50 came to 48 nM.

`C[C@H](Oc1nc(-c2onc3c2CCC[C@@]32CCCc3sc(N)c(C#N)c32)nc2c1CN(C1COC1)C[C@]21CCOC1)[C@@H]1CCCN1C` [I-56] came in with an IC50 of 4 nM.

Compound `CO[C@H]1CCN(C)[C@@H]1[C@H](C)Oc1nc(-c2onc3c2CCC[C@@]32CCCc3sc(N)c(C#N)c32)nc2c1CN(C1COC1)C[C@]21CCOC1` [I-57] displayed an IC50 of 3 nM.

Turning to `C[C@H](Oc1nc(-c2onc3c2CCC[C@@]32CCCc3sc(N)c(C#N)c32)nc2c1n(C)c(=O)n2[C@@H]1CCCOC1)[C@@H]1CCCN1C` [I-12], the IC50 amounted to 3 nM.

Regarding `C[C@H](Oc1nc(-c2onc3c2CCC[C@@]32CCCc3sc(N)c(C#N)c32)nc2c1COC[C@]21CCOC1)[C@@H]1CCCN1C` [I-54], half-maximal inhibition (IC50) required 2 nM.

As for `CO[C@H]1CCN(C)[C@@H]1[C@H](C)Oc1nc(-c2noc3c2CCC[C@@]32CCCc3sc(N)c(C#N)c32)nc2c1n(C)c(=O)n2[C@@H]1CCCOC1` [II-3], the IC50 amounted to 5 nM. This IC50 lies about 2.5-fold higher than the previous one.

As to `C[C@H](Oc1nc(-c2onc3c2CCC[C@@]32CCCc3sc(N)c(C#N)c32)nc2c1n(C)c(=O)n2[C@@H]1CCOC1)[C@@H]1C[C@@H]2C[C@@H]2N1C` [I-28], the IC50 is 27 nM.

`Cc1cc2c(O[C@@H](C)[C@@H]3CCCN3C)nc(-c3onc4c3CCC[C@@]43CCCc4sc(N)c(C#N)c43)nc2n1[C@@H]1CCOC1` [I-40] displayed a 50% inhibitory concentration (IC50) of 17 nM.

`Cc1cn([C@@H]2CCOC2)c2nc(-c3onc4c3CCC[C@@]43CCCc4sc(N)c(C#N)c43)nc(O[C@@H](C)[C@@H]3CCCN3C)c12` [I-41] returned an IC50 of 107 nM.

For `C[C@H](Oc1nc(-c2onc3c2CCC[C@@]32CCCc3sc(N)c(C#N)c32)nc2c1n(C)c(=O)n2[C@@H]1CCOC1)[C@@H]1[C@H](F)CCN1C` [I-4], the IC50 came out at 33 nM.

For the compound `C[C@H](Oc1nc(-c2onc3c2CCC[C@@]32CCCc3sc(N)c(C#N)c32)nc2c1cnn2[C@@H]1CCOC1)[C@@H]1CCCN1C` [I-43], the IC50 was determined as 36 nM.

The subject of the next assay is Ba/F3 cells KRAS G12D. Put plainly: Ba/F3 proliferation assay (KRAS G12D). Type of assay: cell-based. The settings on record: Mus musculus, BaF3, 72 h, AlamarBlue viability. The method, then: Ba/F3 cells are ordered from DSMZ (ACC300, Lot17) and grown in RPMI-1640 (ATCC 30-2001)+10% FCS+10 ng/mL IL-3 at 37° C. in 5% […] atmosphere. Plasmids containing KRASG12 mutants (i.e. […], G12C, G12V) are obtained from GeneScript. To generate KRASG12-dependent Ba/F3 models, Ba/F3 cells are transduced with retroviruses containing vectors that harbor KRASG12 isoforms. Platinum-E cells (Cell Biolabs) are used for retrovirus packaging. Retrovirus is added to Ba/F3 cells. To ensure infection, 4 μg/mL polybrene is added and cells are spinfected. Infection efficiency is confirmed by measuring GFP-positive cells using a cell analyzer. Cells with an infection efficiency of 10% to 20% are further cultivated and puromycin selection with 1 μg/mL is initiated. As a control, parental Ba/F3 cells are used to show selection status. Selection is considered successful when parental Ba/F3 cells cultures died. To evaluate the transforming potential of KRASG12 mutations, the growth medium is no longer supplemented with IL-3. Ba/F3 cells harboring the empty vector are used as a control. Approximately ten days before conducting the experiments, puromycin is left out.
For proliferation assays, Ba/F3 cells are seeded into 384-well plates at 1.5×1 (M cells/60 μL in growth media (RPMI-1640+10% FCS). Compounds (10 mM stock in DMSO) are added at logarithmic dose series using the ECHO acoustic liquid handler system (Beckman Coulter), normalizing for added DMSO and including DMSO controls. All compound treatments are performed in technical duplicates. For the TO time point measurement, untreated cells are analyzed at the time of compound addition. Treated cells are incubated for 72 h at 37° C. with 5% CO2 and cell viability is measured in the PerkinElmer Envision Multimode Reader using AlamarBlue™ (ThermoFisher) viability stain. Viability (stated as percent of control) is defined as relative fluorescence units RFU of each well divided by the RFU of cells in DMSO controls. IC50 values are determined from viability measurements by non-linear regression using a four-parameter model.
Compound `CO[C@@H]1C[C@@H]([C@H](C)Oc2nc(-c3onc4c3CCC[C@@]43CCCc4sc(N)c(C#N)c43)nc3c2n(C)c(=O)n3[C@@H]2CCOC2)N(C)C1` [I-3] returned an IC50 of 14 nM. That is a double-digit nanomolar value.

In the case of `C[C@H](Oc1nc(-c2noc3c2CCC[C@@]32CCCc3sc(N)c(C#N)c32)nc2c1n(C)c(=O)n2[C@@H]1CCOC1)[C@@H]1CCCN1C` [II-2], the IC50 turned out to be 9 nM.

As to `C[C@H](Oc1nc(-c2onc3c2CCC[C@@]32CCCc3sc(N)c(C#N)c32)nc2c1n(C)c(=O)n2[C@H]1CC2CCC1O2)[C@@H]1CCCN1C` (stereo partly drawn) [I-17], half-maximal inhibition (IC50) was put at 47 nM.

Compound `C[C@H](Oc1nc(-c2onc3c2CCC[C@@]32CCCc3sc(N)c(C#N)c32)nc2c1CN(C1COC1)C[C@]21CCOC1)[C@@H]1CCCN1C` [I-56] yielded an IC50 of 13 nM.

As to `CO[C@H]1CCN(C)[C@@H]1[C@H](C)Oc1nc(-c2onc3c2CCC[C@@]32CCCc3sc(N)c(C#N)c32)nc2c1CN(C1COC1)C[C@]21CCOC1` [I-57], the midpoint of inhibition, the IC50, lay at 11 nM.

Consider `C[C@H](Oc1nc(-c2onc3c2CCC[C@@]32CCCc3sc(N)c(C#N)c32)nc2c1n(C)c(=O)n2[C@@H]1CCCOC1)[C@@H]1CCCN1C` [I-12], for which 12 nM corresponded to half-maximal inhibition (IC50).

Compound `C[C@H](Oc1nc(-c2onc3c2CCC[C@@]32CCCc3sc(N)c(C#N)c32)nc2c1COC[C@]21CCOC1)[C@@H]1CCCN1C` [I-54] displayed an IC50 of 4 nM.

The compound `CO[C@H]1CCN(C)[C@@H]1[C@H](C)Oc1nc(-c2noc3c2CCC[C@@]32CCCc3sc(N)c(C#N)c32)nc2c1n(C)c(=O)n2[C@@H]1CCCOC1` [II-3] gave a concentration for half-maximal inhibition (IC50) of 9 nM.

`C[C@H](Oc1nc(-c2onc3c2CCC[C@@]32CCCc3sc(N)c(C#N)c32)nc2c1n(C)c(=O)n2[C@@H]1CCOC1)[C@@H]1C[C@@H]2C[C@@H]2N1C` [I-28] gave an IC50 of 53 nM.

`Cc1cc2c(O[C@@H](C)[C@@H]3CCCN3C)nc(-c3onc4c3CCC[C@@]43CCCc4sc(N)c(C#N)c43)nc2n1[C@@H]1CCOC1` [I-40] displayed an IC50 of 28 nM. This IC50 is about 1.9-fold lower than that of the compound before.

Compound `Cc1cn([C@@H]2CCOC2)c2nc(-c3onc4c3CCC[C@@]43CCCc4sc(N)c(C#N)c43)nc(O[C@@H](C)[C@@H]3CCCN3C)c12` [I-41] showed an IC50 of 106 nM.

As to `C[C@H](Oc1nc(-c2onc3c2CCC[C@@]32CCCc3sc(N)c(C#N)c32)nc2c1n(C)c(=O)n2[C@@H]1CCOC1)[C@@H]1[C@H](F)CCN1C` [I-4], 145 nM corresponded to half-maximal inhibition (IC50).

`C[C@H](Oc1nc(-c2onc3c2CCC[C@@]32CCCc3sc(N)c(C#N)c32)nc2c1cnn2[C@@H]1CCOC1)[C@@H]1CCCN1C` [I-43] yielded a half-inhibitory concentration (IC50) of 49 nM. Compared with the last compound, the IC50 is about 3-fold lower.

Broadly, the IC50 is the midpoint of a concentration-inhibition curve. Read a low IC50 as greater potency.
